Experimental data reported in patent US11440935B2, “3″,5″-dimethoxybenzoyl-3′-amino-3′-deoxy adenosine-5′-triphosphates and pharmaceutical uses thereof” (Danmir Therapeutics, LLC, priority 2018, dated 2022).

Legend:
P2Y1 = biological target: T1, P2Y1 (Homo sapiens, UniProt P47900); test: PDSP functional assay in vitro (PRESTO-Tango), agonist/antagonist; format: cell-based
T1 construct: expressed in transfected cells
Protocol: (§1) The assays were carried out utilizing the method set forth in Kroeze et al., PRESTO-Tango as an open-source resource for interrogation of the druggable human GPCRome, Nat. Struct. Mol. Biol. 2015 May; 22(5):362-9.

P2Y4 = biological target: T2, P2Y4 (Homo sapiens, UniProt P51582); test: as above; format: cell-based
T2 construct: expressed in transfected cells
Protocol: as §1

P2Y6 = biological target: T3, P2Y6 (Homo sapiens, UniProt Q15077); test: as above; format: cell-based
T3 construct: expressed in transfected cells
Protocol: as §1

P2Y14 = biological target: T4, P2Y14 (Homo sapiens, UniProt Q15391); test: as above; format: cell-based
T4 construct: expressed in transfected cells
T4 sequence (Q15391 1-338): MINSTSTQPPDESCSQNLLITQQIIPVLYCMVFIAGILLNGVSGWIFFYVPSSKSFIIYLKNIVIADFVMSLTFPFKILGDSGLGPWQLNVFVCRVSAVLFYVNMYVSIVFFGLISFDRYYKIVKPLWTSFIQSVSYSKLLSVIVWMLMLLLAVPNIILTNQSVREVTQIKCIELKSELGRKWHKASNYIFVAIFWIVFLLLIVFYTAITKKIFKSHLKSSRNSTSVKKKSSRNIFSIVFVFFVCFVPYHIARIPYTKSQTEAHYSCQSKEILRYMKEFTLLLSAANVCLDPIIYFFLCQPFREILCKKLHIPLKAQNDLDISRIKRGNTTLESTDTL
Protocol: as §1

P2Y12 = biological target: T5, P2Y12 (Homo sapiens, UniProt Q9H244); test: as above; format: cell-based
T5 construct: expressed in transfected cells
Protocol: as §1

P2Y2 = biological target: T6, P2Y2 (Homo sapiens, UniProt P41231); test: as above; format: cell-based
T6 construct: expressed in transfected cells
Protocol: as §1

P2Y13 = biological target: T7, P2Y13 (Homo sapiens, UniProt Q9BPV8); test: as above; format: cell-based
T7 construct: expressed in transfected cells
T7 sequence (Q9BPV8 1-354): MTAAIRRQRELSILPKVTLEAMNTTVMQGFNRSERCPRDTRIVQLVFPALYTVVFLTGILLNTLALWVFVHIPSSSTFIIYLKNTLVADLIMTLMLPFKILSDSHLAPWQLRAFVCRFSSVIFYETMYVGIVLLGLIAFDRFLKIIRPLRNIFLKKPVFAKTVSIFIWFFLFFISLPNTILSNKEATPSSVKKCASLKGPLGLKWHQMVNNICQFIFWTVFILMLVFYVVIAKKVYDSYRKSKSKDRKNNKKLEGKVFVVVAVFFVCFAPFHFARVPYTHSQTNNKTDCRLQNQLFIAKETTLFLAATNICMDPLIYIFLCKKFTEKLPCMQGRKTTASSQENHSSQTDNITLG
Protocol: as §1

[1] = test system: nodose ganglion vagal sensory nerve terminals; test: ATP-induced neural action potentials in guinea-pig lung-vagus preparation ex vivo; conditions: ATP 10 μM; DT-0111 1 mM; innervated guinea-pig lung ex vivo
Protocol: The innervated guinea-pig lung preparation was prepared as was described in Undem B J, Chuaychoo B, Lee M G, Weinreich D, Myers A C, Kollarik M. Subtypes of vagal afferent C-fibres in guinea-pig lungs. J Physiol 2004; 556: 905-917; Weigand L A, Ford A P, Undem B J. A role for ATP in bronchoconstriction-induced activation of guinea pig vagal intrapulmonary C-fibres. J Physiol 2012; 590: 4109-4120. The contents of Undem et al. and Weigand et al. are incorporated herein for the purpose of the preparation of the innervated guinea-pig lung preparation. The response to ATP (10 μM; 1 ml, slowly infused into trachea and pulmonary artery) was assessed as the number of action potentials it elicited. Two control responses 15 minutes apart were recorded. There was not differences in the number of action potentials evoked between the first and second response (p>0.1). Subsequently, the lung superfused and perfused via both trachea and pulmonary artery for 15 min with increasing concentration of DT-0111 and the ATP challenge was repeated. The data were quantified as the total number of action potentials evoked and the peak frequency (Hz) as measured by the most action potentials evoked in any 1 s bin. DT-0111 was prepared in distilled water as a 10 mM solution, and aliquots were stored frozen at −20° C. (1-5 days). […]

conscious guinea-pigs = test: Aerosolized ATP-induced bronchoconstriction in conscious guinea-pigs (sRaw); format: in vivo, guinea-pig; conditions: n=6
Protocol: This study was performed in 6 guinea-pigs. The housing room was constantly ventilated, and the temperature kept at ˜23° C. After quarantine, the animals were individually placed in a whole-body, unrestrained, plethysmograph chamber (model PLY3215, Buxco Electronics Inc., Troy, N.Y.) for ˜40 min once a day for two continuous days before the cough test. All GPs were weighed before the cough study.
ATP was purchased from Sigma-Aldrich (Cat #A2383-10G). Solutions of ATP used for aerosol challenge were freshly made just prior to use by dissolving the powder in 0.9% saline (NaCl) solution. Solutions of DT-0111 used for aerosol administration were freshly made by dissolving the powder in 0.9% saline (NaCl) solution.
A plethysmograph chamber was continuously flushed with normoxic (21% O2 and 79% N2) room air at 2 L/min. The same amount of air was drawn through the chamber base outlets using a Buxco bias flow regulator to keep the chamber bias flow balanced. ATP or DT solution was aerosolized by using a vibrating mesh nebulizer (Ireland Ltd., Galway Ireland, AG-AL1100). The output rate of delivered aerosol was around 0.5 ml/min with droplet size (volume median diameter) at 2.5-4.0 μm (manufacture's indications). […]
The results are expressed as percent change in airway pressure (sRaw). n=6; * p<0.05, vs. ATP 0.0 mg/ml; †p<0.05, DT-0111 vs. Ctrl at the same ATP dose.

T1 sequence (P47900 whole entry): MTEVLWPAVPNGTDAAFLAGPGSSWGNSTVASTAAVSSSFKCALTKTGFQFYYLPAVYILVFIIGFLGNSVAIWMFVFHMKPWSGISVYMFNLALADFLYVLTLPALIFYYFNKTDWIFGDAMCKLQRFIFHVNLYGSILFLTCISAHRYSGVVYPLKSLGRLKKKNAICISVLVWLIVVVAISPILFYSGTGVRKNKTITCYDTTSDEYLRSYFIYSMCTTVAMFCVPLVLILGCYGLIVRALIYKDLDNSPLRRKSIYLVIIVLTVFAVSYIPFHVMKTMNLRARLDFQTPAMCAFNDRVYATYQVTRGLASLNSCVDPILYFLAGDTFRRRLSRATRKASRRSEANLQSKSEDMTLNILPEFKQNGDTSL
T3 sequence (Q15077 whole entry): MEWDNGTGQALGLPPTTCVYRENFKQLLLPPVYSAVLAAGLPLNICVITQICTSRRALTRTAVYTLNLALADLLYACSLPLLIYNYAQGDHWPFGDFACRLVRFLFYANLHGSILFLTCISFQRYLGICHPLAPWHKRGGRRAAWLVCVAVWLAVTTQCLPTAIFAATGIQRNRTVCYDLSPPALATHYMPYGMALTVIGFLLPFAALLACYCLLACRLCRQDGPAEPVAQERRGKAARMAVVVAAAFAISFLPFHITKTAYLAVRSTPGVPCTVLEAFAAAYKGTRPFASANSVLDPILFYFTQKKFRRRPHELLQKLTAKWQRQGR
T2 sequence (P51582 whole entry): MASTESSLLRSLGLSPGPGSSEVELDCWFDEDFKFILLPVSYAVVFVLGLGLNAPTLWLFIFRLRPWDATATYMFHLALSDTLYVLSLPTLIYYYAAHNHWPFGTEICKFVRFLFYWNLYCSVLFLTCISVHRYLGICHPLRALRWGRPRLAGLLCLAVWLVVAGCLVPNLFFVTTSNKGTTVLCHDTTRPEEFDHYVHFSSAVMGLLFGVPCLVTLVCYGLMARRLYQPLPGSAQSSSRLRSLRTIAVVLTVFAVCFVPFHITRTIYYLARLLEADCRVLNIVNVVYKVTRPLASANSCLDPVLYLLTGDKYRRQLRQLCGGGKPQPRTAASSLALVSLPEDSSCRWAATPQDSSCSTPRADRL
T6 sequence (P41231 whole entry): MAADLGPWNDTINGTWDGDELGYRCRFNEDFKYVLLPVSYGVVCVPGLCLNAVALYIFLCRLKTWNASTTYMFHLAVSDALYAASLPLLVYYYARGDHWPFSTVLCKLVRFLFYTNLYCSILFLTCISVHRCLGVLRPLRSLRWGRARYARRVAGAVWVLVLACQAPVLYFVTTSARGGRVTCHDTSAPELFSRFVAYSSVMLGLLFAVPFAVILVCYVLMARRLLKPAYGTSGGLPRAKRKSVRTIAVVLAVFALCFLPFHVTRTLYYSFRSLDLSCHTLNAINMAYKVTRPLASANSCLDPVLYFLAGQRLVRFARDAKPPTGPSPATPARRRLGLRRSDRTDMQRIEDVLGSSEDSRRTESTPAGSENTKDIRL
T5 sequence (Q9H244 whole entry): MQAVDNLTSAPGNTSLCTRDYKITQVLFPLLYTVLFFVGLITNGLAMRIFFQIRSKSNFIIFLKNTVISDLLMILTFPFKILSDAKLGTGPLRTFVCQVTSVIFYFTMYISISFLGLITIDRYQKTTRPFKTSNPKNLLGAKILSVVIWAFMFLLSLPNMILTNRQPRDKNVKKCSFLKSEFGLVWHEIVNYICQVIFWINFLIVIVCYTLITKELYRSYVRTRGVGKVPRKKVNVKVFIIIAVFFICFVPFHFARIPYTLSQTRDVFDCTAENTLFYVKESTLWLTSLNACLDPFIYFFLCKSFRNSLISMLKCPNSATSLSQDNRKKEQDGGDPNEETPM

## Sodium 3′-N-(3,5-dimethoxybenzoyl)-3′-deoxy-β-D-adenosine 5′-triphosphate [DT-0111]
P2Y1
  agonist or antagonist action at receptor: does not act as an agonist or antagonist
P2Y4
  agonist or antagonist action at receptor: does not act as an agonist or antagonist
P2Y6
  agonist or antagonist action at receptor: does not act as an agonist or antagonist
P2Y14
  agonist or antagonist action at receptor: does not act as an agonist or antagonist
P2Y12
  agonist or antagonist action at receptor: does not act as an agonist or antagonist
P2Y2
  agonist or antagonist action at receptor: does not act as an agonist or antagonist
P2Y13
  agonist or antagonist action at receptor: does not act as an agonist or antagonist
[1]
  effect on ATP-induced action potentials: markedly suppresses the effect of ATP
Conscious guinea-pigs
  effect on aerosolized ATP-induced bronchoconstriction: Suppresses
